tested on: bovine cardiac myofibrils; test: Myofibril assay: PK/LDH-coupled steady-state ATPase activity of skinned bovine cardiac myofibrils; assay type: biochemical; settings: Ca2+ activating to 75% of maximal rate
In short: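 Steady-state ATPase of detergent-skinned bovine left-ventricular myofibrils (1 mg/mL), PK/LDH-coupled NADH read at 340 nm, in PIPES/MgCl2 buffer pH 6.8 with 50 μM ATP, 0.6 mM EGTA and CaCl2 set for 50% or 75% activation. Inhibition of activity measured.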

In order of rising “CDMF75 IC15” value:
1. Cc1cc(Cl)cnc1N1CC(=O)N(Cc2ccc(Cl)cc2)[C@@H](C(C)C)C1=O [Compound 660, (S)-1-(5-chloro-3-methylpyridin-2-yl)-4-(4-chlorobenzyl)-3-isopropyl-piperazine-2,5-dione]  0.84 µM
2. O=C1C(C2COC2)N(Cc2ccc(Cl)cc2)C(=O)CN1c1ncc(Cl)cc1F (centres unmarked) [Compound 633, 1-(5-chloro-3-fluoropyridin-2-yl)-4-(4-chlorobenzyl)-3-(oxetan-3-yl)piperazine-2,5-dione]  1.3 µM
3. CC1(C(F)F)C(=O)N(c2ncc(Cl)cc2F)CC(=O)N1Cc1ccc(Cl)cc1 (centres unmarked) [Compound 636, 1-(5-chloro-3-fluoropyridin-2-yl)-4-(4-chlorobenzyl)-3-(difluoromethyl)-3-methylpiperazine-2,5-dione]  1.3 µM
4. O=C1C(CC2COC2)N(Cc2ccc(C(F)(F)F)cc2)C(=O)CN1c1ncc(Cl)cc1F (centres unmarked) [Compound 639, 1-(5-chloro-3-fluoropyridin-2-yl)-3-(oxetan-3-ylmethyl)-4-(4-(trifluoromethyl)-benzyl)piperazine-2,5-dione]  1.4 µM
5. CC1(C(F)F)C(=O)N(c2ncc(Cl)cc2F)CC(=O)N1Cc1ccc(C(F)(F)F)cc1 (centres unmarked) [Compound 657, 1-(5-chloro-3-fluoropyridin-2-yl)-3-(difluoromethyl)-3-methyl-4-(4-(trifluoro-methyl)-benzyl)piperazine-2,5-dione]  1.4 µM
6. O=C1C(CC2COC2)N(Cc2ccc(Cl)cc2)C(=O)CN1c1ncc(Cl)cc1F (centres unmarked) [Compound 640, 1-(5-chloro-3-fluoropyridin-2-yl)-4-(4-chlorobenzyl)-3-(oxetan-3-ylmethyl)-piperazine-2,5-dione]  1.6 µM
7. CC1(C2C(=O)N(c3ncc(Cl)cc3F)CC(=O)N2Cc2ccc(Cl)cc2)COC1 (centres unmarked) [Compound 624, 1-(5-chloro-3-fluoropyridin-2-yl)-4-(4-chlorobenzyl)-3-(3-methyloxetan-3-yl)-piperazine-2,5-dione]  2.0 µM
8. O=C1C(C2COC2)N(Cc2ccc(Cl)c(F)c2)C(=O)CN1c1ncc(Cl)cc1F (centres unmarked) [Compound 648, 4-(4-chloro-3-fluorobenzyl)-1-(5-chloro-3-fluoropyridin-2-yl)-3-(oxetan-3-yl)-piperazine-2,5-dione]  2.0 µM
9. O=C1C(C2COC2)N(Cc2ccc(F)c(F)c2)C(=O)CN1c1ncc(Cl)cc1F (centres unmarked) [Compound 647, 1-(5-chloro-3-fluoropyridin-2-yl)-4-(3,4-difluorobenzyl)-3-(oxetan-3-yl)piperazine-2,5-dione]  2.1 µM
10. O=C1C(C2COC2)N(Cc2ccc(C(F)F)cc2)C(=O)CN1c1ncc(Cl)cc1F (centres unmarked) [Compound 650, 1-(5-chloro-3-fluoropyridin-2-yl)-4-(4-(difluoro-methyl)benzyl)-3-(oxetan-3-yl)piperazine-2,5-dione]  2.5 µM
11. O=C1C(C2COC2)N(Cc2ccc(C(F)(F)F)c(F)c2)C(=O)CN1c1ncc(Cl)cc1F (centres unmarked) [Compound 649, 1-(5-chloro-3-fluoropyridin-2-yl)-4-(3-fluoro-4-(trifluoromethyl)benzyl)-3-(oxetan-3-yl)piperazine-2,5-dione]  2.9 µM
12. CC1(C2C(=O)N(c3ncc(Cl)cc3F)CC(=O)N2Cc2ccc(C(F)(F)F)cc2)COC1 (centres unmarked) [Compound 623, 1-(5-chloro-3-fluoropyridin-2-yl)-3-(3-methyloxetan-3-yl)-4-(4-(trifluoro-methyl)-benzyl)piperazine-2,5-dione]  3.0 µM
13. O=C1C(C2COC2)N(Cc2ccc(F)cc2)C(=O)CN1c1ncc(Cl)cc1F (centres unmarked) [Compound 646, 1-(5-chloro-3-fluoropyridin-2-yl)-4-(4-fluorobenzyl)-3-(oxetan-3-yl)piperazine-2,5-dione]  3.3 µM
14. Cc1cc(Cl)cnc1N1CC(=O)N(Cc2ccc(Cl)cc2)C(C2COC2)C1=O (centres unmarked) [Compound 654, 1-(5-chloro-3-methylpyridin-2-yl)-4-(4-chlorobenzyl)-3-(oxetan-3-yl)piperazine-2,5-dione]  5.3 µM
15. CC(=O)N1CC(C2C(=O)N(c3ncc(Cl)cc3F)CC(=O)N2Cc2ccc(C(F)(F)F)cc2)C1 (centres unmarked) [Compound 643, 3-(1-acetylazetidin-3-yl)-1-(5-chloro-3-fluoropyridin-2-yl)-4-(4-(trifluoro-methyl)benzyl)piperazine-2,5-dione]  5.8 µM
16. Cc1cc(Cl)cnc1N1CC(=O)N(Cc2ccc(C(F)(F)F)cc2)C(C2COC2)C1=O (centres unmarked) [Compound 645, 1-(5-chloro-3-methylpyridin-2-yl)-3-(oxetan-3-yl)-4-(4-(trifluoromethyl)benzyl)-piperazine-2,5-dione]  5.8 µM
17. CC(=O)N1CC(C2C(=O)N(c3ncc(Cl)cc3F)CC(=O)N2Cc2ccc(Cl)cc2)C1 (centres unmarked) [Compound 644, 3-(1-acetylazetidin-3-yl)-1-(5-chloro-3-fluoropyridin-2-yl)-4-(4-chlorobenzyl)-piperazine-2,5-dione]  6.8 µM
18. Cc1cc(Cl)cnc1N1CC(=O)N(Cc2ccc(Cl)cc2)C(CC2COC2)C1=O (centres unmarked) [Compound 655, 1-(5-chloro-3-methylpyridin-2-yl)-4-(4-chlorobenzyl)-3-(oxetan-3-ylmethyl)-piperazine-2,5-dione]  7.0 µM
19. Cc1cc(Cl)cnc1N1CC(=O)N(Cc2ccc(C(F)(F)F)cc2)C(CC2COC2)C1=O (centres unmarked) [Compound 651, 1-(5-chloro-3-methylpyridin-2-yl)-3-(oxetan-3-ylmethyl)-4-(4-(trifluoromethyl)-benzyl)piperazine-2,5-dione]  7.3 µM
20. Cc1cc(Cl)cnc1N1CC(=O)N(Cc2ccc(Cl)cc2)C(C2(C)COC2)C1=O (centres unmarked) [Compound 663, 1-(5-chloro-3-methylpyridin-2-yl)-4-(4-chlorobenzyl)-3-(3-methyloxetan-3-yl)-piperazine-2,5-dione]  7.3 µM
21. Cc1cc(Cl)cnc1N1CC(=O)N(Cc2ccc(C(F)(F)F)cc2)C(C2(C)COC2)C1=O (centres unmarked) [Compound 652, 1-(5-chloro-3-methylpyridin-2-yl)-3-(3-methyloxetan-3-yl)-4-(4-(trifluoromethyl)-benzyl)piperazine-2,5-dione]  9.0 µM
22. CC1(CCC(N)=O)C(=O)N(c2ncc(Cl)cc2F)CC(=O)N1Cc1ccc(C(F)(F)F)cc1 (centres unmarked) [Compound 656, 3-(4-(5-chloro-3-fluoro-pyridin-2-yl)-2-methyl-3,6-dioxo-1-(4-(trifluoro-methyl)benzyl)piperazin-2-yl)propanamide]  9.9 µM
23. CNC(=O)N1CC(C2C(=O)N(c3ncc(Cl)cc3F)CC(=O)N2Cc2ccc(Cl)cc2)C1 (centres unmarked) [Compound 642, 3-(4-(5-chloro-3-fluoro-pyridin-2-yl)-1-(4-chloro-benzyl)-3,6-dioxopiperin-2-yl)-N-methylazetidine-1-carboxamide]  10.9 µM
24. CNC(=O)N1CC(C2C(=O)N(c3ncc(Cl)cc3F)CC(=O)N2Cc2ccc(C(F)(F)F)cc2)C1 (centres unmarked) [Compound 641, 3-(4-(5-chloro-3-fluoro-pyridin-2-yl)-3,6-dioxo-1-(4-(trifluoromethyl)-benzyl)piperazin-2-yl)-N-methylazetidine-1-carboxamide]  12.2 µM
25. CC(=O)NC[C@H]1C(=O)N(c2ncc(Cl)cc2F)CC(=O)N1Cc1ccc(C(F)(F)F)cc1 [Compound 625, (S)-N-((4-(5-chloro-3-fluoropyridin-2-yl)-3,6-dioxo-1-(4-(trifluoro-methyl)benzyl)piperazin-2-yl)methyl)acetamide]  14.5 µM
26. CC(=O)N1CC(CC2C(=O)N(c3ncc(Cl)cc3F)CC(=O)N2Cc2ccc(Cl)cc2)C1 (stereo not drawn) [Compound 662, 3-((1-acetylazetidin-3-yl)methyl)-l-(5-chloro-3-fluoropyridin-2-yl)-4-(4-chlorobenzyl)piperazine-2,5-dione]  16.4 µM
27. CC(=O)N1CC(CC2C(=O)N(c3ncc(Cl)cc3F)CC(=O)N2Cc2ccc(C(F)(F)F)cc2)C1 (centres unmarked) [Compound 661, 3-((1-acetylazetidin-3-yl)methyl)-1-(5-chloro-3-fluoropyridin-2-yl)-4-(4-(trifluoromethyl)benzyl)-piperazine-2,5-dione]  17.0 µM
28. CC(=O)NCC1(C)C(=O)N(c2ncc(Cl)cc2F)CC(=O)N1Cc1ccc(Cl)cc1 (centres unmarked) [Compound 631, N-((4-(5-chloro-3-fluoro-pyridin-2-yl)-1-(4-chloro-benzyl)-2-methyl-3,6-dioxopiperazin-2-yl)-methyl)acetamide]  17.3 µM
29. CC(=O)N1CC(C2C(=O)N(c3ncc(Cl)cc3C)CC(=O)N2Cc2ccc(C(F)(F)F)cc2)C1 (centres unmarked) [Compound 653, 3-(1-acetylazetidin-3-yl)-1-(5-chloro-3-methylpyridin-2-yl)-4-(4-(trifluoromethyl)-benzyl)piperazine-2,5-dione]  19.9 µM
30. CC(=O)NCC1C(=O)N(c2ncc(Cl)cc2F)CC(=O)N1Cc1ccc(Cl)cc1 (centres unmarked) [Compound 632, N-((4-(5-chloro-3-fluoro-pyridin-2-yl)-1-(4-chloro-benzyl)-3,6-dioxopiperazin-2-yl)methyl)acetamide]  31.7 µM
31. CC(=O)NCC1C(=O)N(c2ncc(Cl)cc2F)CC(=O)N1Cc1ccc(C(F)(F)F)cc1 (centres unmarked) [Compound 629, N-((4-(5-chloro-3-fluoro-pyridin-2-yl)-3,6-dioxo-1-(4-(trifluoromethyl)-benzyl)piperazin-2-yl)-methyl)acetamide]  32.4 µM

With `CC(=O)NC[C@@H]1C(=O)N(c2ncc(Cl)cc2F)CC(=O)N1Cc1ccc(C(F)(F)F)cc1` [Compound 626, (R)-N-((4-(5-chloro-3-fluoropyridin-2-yl)-3,6-dioxo-1-(4-(trifluoro-methyl)benzyl)piperazin-2-yl)methyl)acetamide] the “CDMF75 IC15” value was >39 µM.

From patent US11414424B2, “Cardiac sarcomere inhibitors” (Cytokinetics, Inc., priority 2018, dated 2022)
